Read-outs that look alike come from different tables or passages of the source. Each block holds one compound with its values, some of them ahead of it.
Columns and labels:
[1] = target: T1, hPHD-HD1 complex (hPygo1 PHD with hBCL9 HD1) (Homo sapiens, UniProt O00512+Q9Y3Y4); test: ITC, histone tail peptides with human PHD-HD1 complex; format: binding; settings: ITC at 25 °C
T1 construct: hPygo1 PHD (amino acids 333–402); GST (N, cleaved yes); made in house; host or cells: E. coli BL21-CodonPlus(DE3)-RIL
T1 sequence (Q9Y3Y4 333-402): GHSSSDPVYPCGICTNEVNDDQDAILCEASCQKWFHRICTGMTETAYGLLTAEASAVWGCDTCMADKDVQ
T1 sequence (O00512 177-205 partner limits assumed): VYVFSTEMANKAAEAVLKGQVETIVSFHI
Method: (§1) ITC was carried out using a VP-ITC Microcal calorimeter (Microcal, Northhampton, MA, USA). Peptides were lyophilized against freshly prepared 20mM ammonium bicarbonate solution and resuspended in the ITC dialysis buffer (25mM Tris pH 8.0, 100mM NaCl and 2mM β-mercaptoethanol). Experiments were performed at 25 °C. During titration, 4-12µl aliquots of 0.5-1.0mM peptide solution was injected into a solution of 50µM protein at time intervals of 5 min. ITC data were corrected for the heat of dilution and analyzed using Origin (version 5.0) provided by the manufacturer. […]

[2] = target: T2, PHD finger from hPygo1 (hPHD) (Homo sapiens, UniProt Q9Y3Y4); test: ITC, histone tail peptides with free hPHD; format: binding; settings: 15-mer peptides, ITC at 25 °C, pH 8.0
T2 construct: hPygo1 PHD (amino acids 333–402); GST (N, cleaved yes); made in house; host or cells: E. coli BL21-CodonPlus(DE3)-RIL
T2 sequence (Q9Y3Y4 333-402): T1 sequence (Q9Y3Y4 333-402)
Method: Free PHD fingers were purified similarly to the PHD-HD1 complexes, and purity was assessed by SDS-PAGE prior to use for ITC.
as §1

[3] = target: T3, dPHD-HD1 complex (Drosophila Pygo PHD with Lgs HD1) (Drosophila melanogaster, UniProt Q961D9+Q9V9W8); test: ITC, histone tail peptides with Drosophila PHD-HD1 complex; format: binding
T3 construct: Drosophila Pygo PHD (amino acids 747–808); GST (N, cleaved yes); made in house; host or cells: E. coli BL21-CodonPlus(DE3)-RIL
T3 sequence (Q9V9W8 747-808): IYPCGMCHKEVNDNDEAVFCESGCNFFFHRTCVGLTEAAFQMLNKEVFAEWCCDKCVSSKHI
T3 sequence (Q961D9 316-350 partner limits assumed): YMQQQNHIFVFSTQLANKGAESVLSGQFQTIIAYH
Method: as §1

[4] = tested on: PHD from hPygo1 (GST-hPHD); test: In vitro pull-down, MBP-tagged HD1 deletions with GST-hPHD; format: binding, human; settings: systematic N- and C-terminal deletions of HD1, MBP-tagged
Method: Figure S2. Deletion Analysis of hBCL9 HD1 and Binding to hPygo1 PHD
(A) Systematic N- and C-terminal deletions of HD1 from hBCL9 (underlined), individually and combined (bottom); sequences between, and including, red (marking deletion end-points) were tested for their in vitro binding to PHD from hPygo1 (B), as summarized on […]
(B) In vitro pull-down assays, to test binding between MBP-tagged HD1 deletions and GST-hPHD; positive controls, Lgs HD1, hBCL9 AKV-TER; negative controls, GST, MBP-ACTN2; IP, input (5%); G, GST; PHD, GST-hPHD. […]

Compound: 9-mer H3K4me2 A1>G: 9-mer whose A1 was substituted with a glycine (A1 > G) (GRTKQTARK; dimethyl-lysine at K4)
binding (in words) ([1]; human PHD-HD1 complex, pH 8.0): reduced to almost background levels

Compound: 9-mer H3K4me2 ΔA1: truncated H3K4me2 peptide spanning R2-K9 (without A1, ΔA1) (RTKQTARK; dimethyl-lysine at K4)
binding (in words) ([1]; human PHD-HD1 complex, pH 8.0): No binding was detectable

Compound: C[C@H](N)C(=O)N[C@@H](CCCNC(=N)N)C(=O)N[C@H](C(=O)N[C@@H](CCCC[N+](C)(C)C)C(=O)N[C@@H](CCC(N)=O)C(=O)N[C@H](C(=O)N[C@@H](C)C(=O)N[C@@H](CCCNC(=N)N)C(=O)N[C@@H](CCCCN)C(=O)N[C@@H](CO)C(=O)N[C@H](C(=O)NCC(=O)NCC(=O)N[C@@H](CCCCN)C(=O)N[C@@H](C)C(=O)O)[C@@H](C)O)[C@@H](C)O)[C@@H](C)O [15-mer H3K4me3]
Kd [3]: 23 µM

Compound: V177-I205: minimal PHD-interacting fragment of HD1 from hBCL9 (VYVFSTEMANKAAEAVLKGQVETIVSFHI; HD1; UniProt O00512 177-205, looked up, fragment)
PHD binding of HD1 fragment (in words) [4]: minimal PHD-interacting fragment

Continued, values first:

Kd ([1]; Figure 3B, hPHD-HD1, pH 8.0, 100 mM NaCl, 25 mM Tris-HCl, 10 μM ZnCl2, 2 mM β-mercaptoethanol, 50µM protein, 0.5-1.0mM peptide, one-site model, ± fitting error, read-out: Binding constant (Kd)): 11.4 ± 1.1 µM
Compound: C[C@H](N)C(=O)N[C@@H](CCCNC(=N)N)C(=O)N[C@H](C(=O)N[C@@H](CCCCN(C)C)C(=O)N[C@@H](CCC(N)=O)C(=O)N[C@H](C(=O)N[C@@H](C)C(=O)N[C@@H](CCCNC(=N)N)C(=O)N[C@@H](CCCCN)C(=O)O)[C@@H](C)O)[C@@H](C)O [9-mer H3K4me2]

Kd [2]: 9 µM | Kd ([3]; Figure 3B, dPHD-HD1, ITC at 25 °C, pH 8.0, 100 mM NaCl, 25 mM Tris-HCl, 10 μM ZnCl2, 2 mM β-mercaptoethanol, 50µM protein, 0.5-1.0mM peptide, one-site model, ± fitting error, read-out: Binding constant (Kd)): 21.5 ± 0.3 µM | Kd ([1]; human PHD-HD1 complex, pH 8.0, read-out: Kd): 2.9 µM
Compound: CNCCCC[C@H](NC(=O)[C@@H](NC(=O)[C@H](CCCNC(=N)N)NC(=O)[C@H](C)N)[C@@H](C)O)C(=O)N[C@@H](CCC(N)=O)C(=O)N[C@H](C(=O)N[C@@H](C)C(=O)N[C@@H](CCCNC(=N)N)C(=O)N[C@@H](CCCCN)C(=O)N[C@@H](CO)C(=O)N[C@H](C(=O)NCC(=O)NCC(=O)N[C@@H](CCCCN)C(=O)N[C@@H](C)C(=O)O)[C@@H](C)O)[C@@H](C)O [15-mer H3K4me1]

Kd [2]: 2.4 µM | Kd ([3]; Figure 3A panel, dPHD-HD1, 15-mer peptide, ITC at 25 °C, 100 mM NaCl, 25 mM Tris-HCl pH 8.0, 10 μM ZnCl2, 2 mM β-mercaptoethanol, 50µM protein, 0.5-1.0mM peptide, one-site model, ± fitting error, read-out: Kd): 12.6 ± 0.5 µM | Kd ([1]; Figure 3A panel, hPHD-HD1, 15-mer peptides, 100 mM NaCl, 25 mM Tris-HCl pH 8.0, 10 μM ZnCl2, 2 mM β-mercaptoethanol, 50µM protein, 0.5-1.0mM peptide, one-site model, ± fitting error, read-out: Kd): 0.93 ± 0.01 µM
Compound: C[C@H](N)C(=O)N[C@@H](CCCNC(=N)N)C(=O)N[C@H](C(=O)N[C@@H](CCCCN(C)C)C(=O)N[C@@H](CCC(N)=O)C(=O)N[C@H](C(=O)N[C@@H](C)C(=O)N[C@@H](CCCNC(=N)N)C(=O)N[C@@H](CCCCN)C(=O)N[C@@H](CO)C(=O)N[C@H](C(=O)NCC(=O)NCC(=O)N[C@@H](CCCCN)C(=O)N[C@@H](C)C(=O)O)[C@@H](C)O)[C@@H](C)O)[C@@H](C)O [15-mer H3K4me2]
